Entries after “also recorded” stand apart in the source; their conditions may differ. Where two headings read alike, the source gives them in different places.
How the values were obtained:
[1] = cited from earlier work
[2] = test system: MECP2-KO cortical organoids; experiment: RNA sequencing and gene ontology analysis of cortical organoids; assay type: cell-based, human; conditions: 1 μM for one month, two-month old organoids
Procedure: RNA-seq analyses. RNA-seq analyses were performed as described in Marchetto et al. (Nature 504:525-529 (2013)). Briefly, RNeasy Mini kit (Qiagen) isolated RNA for library preparation (Illumina TruSeq RNA Sample Preparation Kit; San Diego, Calif., USA) and sequencing (Illumina HiSeq2000, 50 bp paired-end reads, 50 million high-quality sequencing fragments per sample on average).
Gene ontology (GO) analysis. RNA-seq enrichment was with plugins WebGestalt and Cytoscape and considered only statistically significant categories (P<0.05). Genes evaluated for differential expression set the background for GO annotation and enrichment analysis.
Nefiracetam and PHA 543613 rescue network activity in MECP2-KO cortical organoids. The therapeutic efficacy of Nefiracetam and PHA 543613 was evaluated with cortical organoids, a complex, three-dimensional human neurodevelopmental model that closely recapitulates aspects of human fetal neurodevelopment. MECP2-KO and control cortical organoids were generated, as described above (see FIG. 9A, and FIG. 10A-B). One-month old cortical organoids were treated for another month with either Nefiracetam (1 μM) or PHA 543613 (1 μM), and experiments and analyses were performed using organoids at 2-3 months of age. […]

GABAA receptor = conditions: read-out: affinity for the GABAA receptor (IC50); cited from earlier work
[3] = test system: MECP2-KO cortical organoids; experiment: Synapsin1+ puncta quantitation in cortical organoids; assay type: cell-based, human; conditions: 1 μM for one month, vs untreated
Procedure: Immunofluorescence of cells and cortical organoids. Immunofluorescence was performed as described in Chailangkam et al. Cells fixed in 4% PFA were PBS-washed and permeabilized/blocked (0.1% Triton X-100, 2% BSA). Cortical organoids fixed in 4% PFA were transferred to 30% sucrose, sunken, embedded in O.C.T. (Sakura, Tokyo, Japan), and cryostat-sectioned. Air-dried slides with organoid sections were permeabilized/blocked (0.1% Triton X-100, 3% FBS, PBS). […] Slides or coverslips were mounted with ProLong Gold anti-fade mountant (Life Technologies) and analyzed with a Z1 Axio Observer Apotome fluorescence microscope (Zeiss, Oberkochen, Germany).
Nefiracetam and PHA 543613 rescue network activity in MECP2-KO cortical organoids. The therapeutic efficacy of Nefiracetam and PHA 543613 was evaluated with cortical organoids, a complex, three-dimensional human neurodevelopmental model that closely recapitulates aspects of human fetal neurodevelopment. […]

[4] = molecular target: α7 subtype of neural nicotinic acetylcholine receptors (Homo sapiens, UniProt P36544); conditions: cited from earlier work
α7 subtype of neural nicotinic acetylcholine receptors, sequence (P36544 23-502): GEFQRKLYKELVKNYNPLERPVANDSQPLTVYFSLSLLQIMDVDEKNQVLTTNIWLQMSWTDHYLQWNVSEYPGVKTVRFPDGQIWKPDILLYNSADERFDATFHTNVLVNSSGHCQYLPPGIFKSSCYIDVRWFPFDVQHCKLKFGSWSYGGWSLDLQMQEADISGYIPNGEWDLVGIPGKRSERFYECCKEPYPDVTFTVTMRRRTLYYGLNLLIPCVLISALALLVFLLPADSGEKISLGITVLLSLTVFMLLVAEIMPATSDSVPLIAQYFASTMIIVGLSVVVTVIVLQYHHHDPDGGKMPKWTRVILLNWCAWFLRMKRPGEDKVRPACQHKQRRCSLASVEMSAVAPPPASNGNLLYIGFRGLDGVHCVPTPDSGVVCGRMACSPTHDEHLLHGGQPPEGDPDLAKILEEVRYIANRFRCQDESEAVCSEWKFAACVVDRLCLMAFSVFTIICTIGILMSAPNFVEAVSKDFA

[5] = in vivo, cited from earlier work

Structure (SMILES) | toxicity during clinical trials ([1]; clinical trials) | toxicity on long-term consumption ([1]; humans and primates) | expression of genes in pathways relevant to synaptic function [2] | IC50 (GABAA receptor) | synaptic puncta (Synapsin1+) [3] | agonist activity at α7 nAChR [4] | brain penetration [5] | oral bioavailability [5] | brain penetration ([5]; listed as PHA-543613) | oral bioavailability ([5]; listed as PHA-543613)
Cc1cccc(C)c1NC(=O)CN1CCCC1=O [Nefiracetam, nefiracetam] | no evidence of toxicity | no toxicity | promoted expression; also recorded: upregulated genetic expression | 8.5 nM | increase |  |  |  |  | 
O=C(N[C@H]1CN2CCC1CC2)c1cc2ccoc2cn1 [PHA 543613, N-[(3R)-1-azabicyclo[2.2.2]oct-3-yl]furo[2,3-c]pyridine-5-carboxamide] |  |  | promoted expression; also recorded: upregulated expression |  |  | potent and selective agonist | rapid brain penetration | high oral bioavailability | high level of brain penetration | good oral bioavailability
